The source made the active and inactive calls.
Legend:
[1] = target: T1, Corticotropin-releasing factor receptor 2/Corticotropin-releasing factor-binding protein (Homo sapiens, UniProt P24387+Q13324); assay: activators of CRF receptor 2 with binding protein – uHTS hits, confirmation (AID 602473); format: functional; conditions: read-out: EC50_Mean
T1 sequence (Q13324 whole entry): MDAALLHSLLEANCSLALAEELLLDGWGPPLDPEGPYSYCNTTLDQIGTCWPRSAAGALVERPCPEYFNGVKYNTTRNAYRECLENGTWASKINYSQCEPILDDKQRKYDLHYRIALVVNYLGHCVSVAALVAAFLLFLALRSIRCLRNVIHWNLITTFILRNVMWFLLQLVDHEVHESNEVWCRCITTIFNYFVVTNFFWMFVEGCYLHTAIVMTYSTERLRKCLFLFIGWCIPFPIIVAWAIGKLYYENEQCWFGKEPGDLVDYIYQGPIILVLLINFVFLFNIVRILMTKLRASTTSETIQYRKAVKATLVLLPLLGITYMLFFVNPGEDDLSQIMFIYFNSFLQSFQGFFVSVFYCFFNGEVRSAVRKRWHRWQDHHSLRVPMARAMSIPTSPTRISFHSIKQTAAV
T1 sequence (P24387 whole entry): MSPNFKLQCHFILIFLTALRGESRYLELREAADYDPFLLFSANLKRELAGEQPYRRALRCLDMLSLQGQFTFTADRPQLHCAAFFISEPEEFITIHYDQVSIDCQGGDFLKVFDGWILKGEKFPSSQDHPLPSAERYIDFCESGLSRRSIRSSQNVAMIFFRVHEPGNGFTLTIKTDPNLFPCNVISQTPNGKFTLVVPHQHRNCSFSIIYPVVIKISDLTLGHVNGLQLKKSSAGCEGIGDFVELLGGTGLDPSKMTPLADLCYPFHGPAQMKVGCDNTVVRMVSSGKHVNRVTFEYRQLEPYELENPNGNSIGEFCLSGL

[2] = HEp-2 cell cytotoxicity, dose response, cytotoxicity control for RSV inhibitor project, HTS (AID 2410); format: functional; conditions: human respiratory syncytial virus
[3] = target: T2, RNA-binding protein pos-1 (Caenorhabditis elegans, UniProt G5EF15); assay: inhibitors of POS-1/mex-3 RNA binding, dose response, biochemical, fluorescence polarization (AID 1964);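 further: purified POS-1 fused to maltose binding protein made in E. coli; potency of compounds blocking POS-1 binding to fluorescent RNA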
T2 sequence (G5EF15 whole entry): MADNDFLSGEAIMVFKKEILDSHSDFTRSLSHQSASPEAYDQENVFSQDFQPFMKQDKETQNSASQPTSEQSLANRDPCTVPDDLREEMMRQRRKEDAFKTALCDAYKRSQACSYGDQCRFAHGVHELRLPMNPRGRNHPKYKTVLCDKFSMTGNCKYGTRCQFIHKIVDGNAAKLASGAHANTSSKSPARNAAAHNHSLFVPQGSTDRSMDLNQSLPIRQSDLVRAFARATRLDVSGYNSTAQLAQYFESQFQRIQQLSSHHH

[4] = target: Cytochrome P450 2C9 (Homo sapiens, UniProt P11712)
Chain of Cytochrome P450 2C9 (P11712 whole entry): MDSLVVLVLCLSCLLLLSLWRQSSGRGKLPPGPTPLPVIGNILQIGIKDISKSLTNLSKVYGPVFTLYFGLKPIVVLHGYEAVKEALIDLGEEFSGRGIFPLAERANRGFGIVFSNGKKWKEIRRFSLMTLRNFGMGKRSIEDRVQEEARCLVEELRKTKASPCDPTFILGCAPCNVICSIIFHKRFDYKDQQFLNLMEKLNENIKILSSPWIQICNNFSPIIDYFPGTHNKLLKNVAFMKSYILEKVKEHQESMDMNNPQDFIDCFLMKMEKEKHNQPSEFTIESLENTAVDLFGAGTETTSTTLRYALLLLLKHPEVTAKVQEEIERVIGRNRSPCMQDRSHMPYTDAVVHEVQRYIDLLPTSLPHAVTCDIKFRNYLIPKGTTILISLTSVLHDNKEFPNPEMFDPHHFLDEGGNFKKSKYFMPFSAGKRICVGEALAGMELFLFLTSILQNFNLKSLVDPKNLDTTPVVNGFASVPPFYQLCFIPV

[5] = target: T3, Cytochrome P450 1A2 (Homo sapiens, UniProt P05177);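 further: PubChem cytochrome P450 panel assay, CYP1A2 panel member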
T3 sequence (P05177 whole entry): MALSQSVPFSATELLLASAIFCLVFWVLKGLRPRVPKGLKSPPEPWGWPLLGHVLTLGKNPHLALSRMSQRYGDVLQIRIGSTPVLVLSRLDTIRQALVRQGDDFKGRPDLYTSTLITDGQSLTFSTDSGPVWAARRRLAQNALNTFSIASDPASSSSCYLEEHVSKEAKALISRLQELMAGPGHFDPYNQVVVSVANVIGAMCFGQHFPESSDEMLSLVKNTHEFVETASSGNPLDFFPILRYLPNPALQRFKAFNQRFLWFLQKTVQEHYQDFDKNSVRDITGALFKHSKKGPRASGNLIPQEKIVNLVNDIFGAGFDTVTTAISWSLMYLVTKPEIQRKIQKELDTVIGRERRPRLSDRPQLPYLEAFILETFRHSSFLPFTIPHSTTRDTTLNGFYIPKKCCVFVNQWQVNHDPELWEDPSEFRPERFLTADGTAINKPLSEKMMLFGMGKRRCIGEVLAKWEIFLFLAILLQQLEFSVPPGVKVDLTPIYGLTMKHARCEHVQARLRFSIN

[6] = target: T4, Rac GTPase-activating protein 1 (Homo sapiens, UniProt Q9H0H5); assay: MgcRacGAP GTPase-activating activity inhibitors, confirmation, biochemical, ADP Hunter fluorescence, primary and confirmatory (AID 624330); format: functional
T4 sequence (Q9H0H5 whole entry): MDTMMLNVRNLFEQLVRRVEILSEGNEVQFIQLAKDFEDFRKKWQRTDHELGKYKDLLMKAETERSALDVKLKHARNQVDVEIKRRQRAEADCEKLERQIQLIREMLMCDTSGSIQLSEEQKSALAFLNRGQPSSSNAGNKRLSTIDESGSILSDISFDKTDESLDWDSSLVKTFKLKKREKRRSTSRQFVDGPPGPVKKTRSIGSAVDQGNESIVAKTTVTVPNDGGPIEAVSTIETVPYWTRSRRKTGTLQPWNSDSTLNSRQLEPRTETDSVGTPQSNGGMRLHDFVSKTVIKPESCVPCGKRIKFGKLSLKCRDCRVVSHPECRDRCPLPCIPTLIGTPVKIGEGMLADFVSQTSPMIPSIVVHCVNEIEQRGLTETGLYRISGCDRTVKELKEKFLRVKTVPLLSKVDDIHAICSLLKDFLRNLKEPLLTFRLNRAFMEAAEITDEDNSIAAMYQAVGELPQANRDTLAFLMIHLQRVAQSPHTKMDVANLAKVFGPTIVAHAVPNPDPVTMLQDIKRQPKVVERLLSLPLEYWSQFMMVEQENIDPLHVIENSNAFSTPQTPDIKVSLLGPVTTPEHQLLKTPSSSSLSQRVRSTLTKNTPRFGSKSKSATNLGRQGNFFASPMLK

[7] = target: T5, Replicative DNA helicase DnaB (Mycobacterium tuberculosis, UniProt P9WMR3); assay: DnaB intein splicing inhibitors, dose response, biochemical, cell-free fluorescence (AID 449749); format: functional
T5 sequence (P9WMR3 whole entry): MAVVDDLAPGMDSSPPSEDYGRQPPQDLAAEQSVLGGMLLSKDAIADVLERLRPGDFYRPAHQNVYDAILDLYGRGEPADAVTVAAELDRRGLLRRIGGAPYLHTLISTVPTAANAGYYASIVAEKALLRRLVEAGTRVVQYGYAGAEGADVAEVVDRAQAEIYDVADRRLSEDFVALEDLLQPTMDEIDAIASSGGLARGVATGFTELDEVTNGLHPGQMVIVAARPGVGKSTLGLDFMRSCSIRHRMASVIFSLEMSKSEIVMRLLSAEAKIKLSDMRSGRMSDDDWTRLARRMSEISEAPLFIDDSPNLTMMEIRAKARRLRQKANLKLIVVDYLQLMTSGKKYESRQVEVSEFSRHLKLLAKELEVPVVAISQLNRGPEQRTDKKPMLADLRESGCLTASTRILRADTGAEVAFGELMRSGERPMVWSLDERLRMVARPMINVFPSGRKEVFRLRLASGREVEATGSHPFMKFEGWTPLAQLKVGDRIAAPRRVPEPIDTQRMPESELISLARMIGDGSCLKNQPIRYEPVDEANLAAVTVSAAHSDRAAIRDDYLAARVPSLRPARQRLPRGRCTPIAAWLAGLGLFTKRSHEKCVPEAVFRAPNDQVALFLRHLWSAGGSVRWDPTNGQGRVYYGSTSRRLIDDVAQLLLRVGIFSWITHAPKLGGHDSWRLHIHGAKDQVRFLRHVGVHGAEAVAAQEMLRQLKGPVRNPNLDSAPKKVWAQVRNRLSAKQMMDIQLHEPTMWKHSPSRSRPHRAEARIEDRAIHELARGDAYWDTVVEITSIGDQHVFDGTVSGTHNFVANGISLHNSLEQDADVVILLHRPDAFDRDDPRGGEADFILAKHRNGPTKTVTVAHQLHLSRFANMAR

[8] = target: T6, Protein RecA (Mycobacterium tuberculosis, UniProt P9WHJ3); assay: Fluorescence Cell-Free Homogeneous Dose Retest to Identify Inhibitors of RecA-Intein Splicing Activity. [Related pubchem assays (depositor defined):AID2097, AID2223, AID489010, AID492950]; format: functional
T6 sequence (P9WHJ3 whole entry): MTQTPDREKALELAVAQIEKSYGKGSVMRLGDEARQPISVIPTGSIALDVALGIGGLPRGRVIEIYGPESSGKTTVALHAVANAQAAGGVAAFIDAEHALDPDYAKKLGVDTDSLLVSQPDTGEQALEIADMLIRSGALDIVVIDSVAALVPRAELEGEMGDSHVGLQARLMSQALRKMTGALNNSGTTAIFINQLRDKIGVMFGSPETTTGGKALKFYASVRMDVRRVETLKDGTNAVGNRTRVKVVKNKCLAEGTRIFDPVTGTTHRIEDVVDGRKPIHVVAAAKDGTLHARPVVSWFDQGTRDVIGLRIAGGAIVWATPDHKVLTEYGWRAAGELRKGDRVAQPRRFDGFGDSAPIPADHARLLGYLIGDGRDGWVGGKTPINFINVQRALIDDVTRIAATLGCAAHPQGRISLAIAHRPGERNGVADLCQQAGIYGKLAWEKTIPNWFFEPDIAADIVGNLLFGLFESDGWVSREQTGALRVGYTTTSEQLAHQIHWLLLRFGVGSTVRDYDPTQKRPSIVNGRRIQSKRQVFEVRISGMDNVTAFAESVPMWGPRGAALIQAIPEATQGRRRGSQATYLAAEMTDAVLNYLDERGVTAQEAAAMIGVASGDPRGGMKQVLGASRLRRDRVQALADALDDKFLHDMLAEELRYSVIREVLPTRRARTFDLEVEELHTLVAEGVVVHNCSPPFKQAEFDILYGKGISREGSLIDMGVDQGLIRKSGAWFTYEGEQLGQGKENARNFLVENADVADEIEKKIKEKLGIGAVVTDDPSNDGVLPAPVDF

[9] = target: Cytochrome P450 2C19 (Homo sapiens, UniProt P33261); assay: Cytochrome panel assay with activity outcomes. Panel member name: p450-cyp2c19 Compounds with AC50 equal or less than 10 uM are considered active; format: functional; conditions: read-out: AC50
Chain of Cytochrome P450 2C19 (P33261 whole entry): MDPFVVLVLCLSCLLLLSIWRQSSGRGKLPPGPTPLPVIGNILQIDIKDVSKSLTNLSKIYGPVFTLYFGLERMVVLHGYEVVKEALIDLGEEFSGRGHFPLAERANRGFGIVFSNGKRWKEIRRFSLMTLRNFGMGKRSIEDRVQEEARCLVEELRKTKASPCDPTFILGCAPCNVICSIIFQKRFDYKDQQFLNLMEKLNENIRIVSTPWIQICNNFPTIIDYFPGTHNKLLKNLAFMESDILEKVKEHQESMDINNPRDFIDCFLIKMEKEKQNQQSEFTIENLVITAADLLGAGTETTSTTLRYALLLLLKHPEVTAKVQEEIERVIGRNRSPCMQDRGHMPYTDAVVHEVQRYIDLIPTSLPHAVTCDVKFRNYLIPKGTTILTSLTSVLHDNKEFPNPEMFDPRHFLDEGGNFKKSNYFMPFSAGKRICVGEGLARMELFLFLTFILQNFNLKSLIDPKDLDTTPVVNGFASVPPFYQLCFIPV

Structure (SMILES)	CC50 [2]	AC50 [4]	also measured
COc1ccc(/C(O)=C/c2nc3ccccc3n(-c3ccccc3)c2=O)cc1			EC50 [1]: 7.85 µM (active)
CCc1sc(C(=O)Nc2ccc3c(c2)OCCO3)cc1Br	10.7 µM (active)		
Cc1cccc(N2C(=O)/C(=C/c3ccc(N4CCN(C)CC4)o3)C(=O)NC2=S)c1C			EC50 [3]: > 300 µM (inconclusive)
CCOc1cc(C=C2C(=O)c3ccccc3C2=O)ccc1OCC(=O)Nc1ccc(C)cc1			EC50 [1]: > 53 µM (inactive)
Cc1nc2sccn2c(=O)c1S(=O)(=O)Nc1cccc(Cl)c1C			EC50 [1]: > 53 µM (inactive)
O=C(CCCN1C(=O)c2cccc3cccc(c23)C1=O)N1CCN(Cc2ccc3c(c2)OCO3)CC1	43.7 µM (active)		
CC(=O)N1CCc2ccc(S(=O)(=O)N3CCN(C)CC3)cc21			EC50 [1]: > 53 µM (inactive)
CCN(CC)c1ccc(/C=N/c2sc3c(c2C#N)C2CCN3CC2)c(O)c1	6.56 µM (active)		
CCn1nc(C(=O)Nc2ccccc2N2CCCC2)c2ccccc2c1=O	> 50 µM (active)		
COC(=O)C1=C(c2ccc(C(C)=O)cc2)C[C@@H]2CC[C@H]1N2C(=O)NCc1ccc(C(F)(F)F)cc1			EC50 [1]: 4.94 µM (active)
CCc1cc2c(O)ncnc2s1		28.2 µM (inconclusive)	AC50 [5]: 20 µM (inconclusive)
Cc1oc(-c2ccccc2)cc1C(=O)Nc1ccc(N(C)C)cc1		25.1 µM (inconclusive)	IC50 [6]: 62.3 µM (active)
CCOc1cc(N(CC)CC)ccc1/C=C(/C#N)c1nc2ccccc2[nH]1	21.4 µM (active)		
COc1ccccc1CNC(=O)CCCn1nc(C)c2c(C)n(-c3ccc(C)cc3)nc2c1=O	32 µM (active)		
COc1ncc2nc(-c3cccs3)c(=O)n(C)c2n1		12.6 µM (inconclusive)	
Nc1ccc(S(=O)(=O)Nc2cnc3ccccc3n2)cc1 [SULFAQUINOXALINE SODIUM]		10 µM (inconclusive)	
Nc1ccc2[nH]c(CCCCc3nc4ccccc4[nH]3)nc2c1			AC50 [7]: > 380 µM (inactive); IC50 [6]: 57.3 µM (active); EC50 [8]: 16.9 µM (active)
Cc1cc(C)c(NC(=O)C[S+]([O-])CC(=O)NCCCc2ccccc2)c(C)c1 (configuration not stated)		28.2 µM (inconclusive)	
CCCCc1ccc(-c2csc(/C(C#N)=C/c3ccc(C)o3)n2)cc1		3.16 µM (inconclusive)	AC50 [5]: 2 µM (inconclusive)
O=C(Nc1cccc(S(=O)(=O)N2CCCCC2)c1)c1ccccc1NS(=O)(=O)c1ccc(F)cc1			EC50 [1]: > 53 µM (inactive)
O=C(O)[C@@H](S)[C@H](S)C(=O)O		3.98 µM (inconclusive)	
Oc1ccc(C[C@H]2CNCCN2CCC23CC4CC(CC(C4)C2)C3)cc1	14.2 µM (active)		
COc1cc(CC(=O)OC2CCOC2=O)cc(OC)c1OC (configuration not stated)		39.8 µM (inconclusive)	AC50 [9]: 8.91 µM (inconclusive)
C=CCn1c(=O)c2ccccc2n2c(SCC(=O)N3CCCc4ccccc43)nnc12			EC50 [1]: > 53 µM (inactive)
CCOc1ccc2nc(NC(=O)COc3ccc(N(C)S(=O)(=O)c4ccc(C)cc4)cc3)sc2c1	1.78 µM (active)		
O=S(=O)(c1ccc2c(c1)OCCO2)N1CCN(c2cccc(Cl)c2)CC1	34.9 µM (active)		
CCNC(=O)CC1C(=O)N(c2ccc(F)cc2)C(=O)N1CCc1ccc(OC)cc1 (configuration not stated)		0.282 µM (inconclusive)	AC50 [9]: 8.91 µM (inconclusive)
COc1cc(OC)cc(C(=O)Nc2ccc(-c3nc4ccccc4o3)c(O)c2)c1	17.6 µM (active)		
CCOP(=O)(OCC)c1nc(/C=C/c2ccccc2)oc1NCc1ccccc1		4.47 µM (inconclusive)	AC50 [5]: 15.8 µM (inconclusive)

— ChEMBL document CHEMBL1201862, “PubChem BioAssay data set” (2004)
